Drawing on ChEMBL document CHEMBL4828705, “Inhibition studies on carbonic anhydrase isoforms I, II, IV and IX with N-arylsubstituted secondary sulfonamides featuring a bicyclic tetrahydroindazole scaffold” (Eur J Med Chem, 2021), this text covers Ki for 27 compounds.

What is called pKi is −log10 of the Ki, conventionally taken in molar units.

For experiment [1], the target named is Carbonic anhydrase 2 (Homo sapiens, UniProt P00918). The experiment is described as follows: Inhibition of recombinant human CA2 preincubated for 15 mins by phenol red dye-based stopped-flow CO2 hydration assay.
Experiment [2] deals with Carbonic anhydrase 9 (Homo sapiens, UniProt Q16790). Nature of the experiment: Inhibition of recombinant human CA9 preincubated for 15 mins by phenol red dye-based stopped-flow CO2 hydration assay.
Experiment [3] deals with Carbonic anhydrase 1 (Homo sapiens, UniProt P00915). Nature of the experiment: Inhibition of recombinant human CA1 preincubated for 15 mins by phenol red dye-based stopped-flow CO2 hydration assay.
Experiment [4] addresses Carbonic anhydrase 4 (Homo sapiens, UniProt P22748). The experiment is described as follows: Inhibition of recombinant human CA4 preincubated for 15 mins by phenol red dye-based stopped-flow CO2 hydration assay.

pKi: −log10 of the molar value. Where only a bound is given, the exact number is not on record here.

Carbonic anhydrase 1, sequence (P00915 whole entry): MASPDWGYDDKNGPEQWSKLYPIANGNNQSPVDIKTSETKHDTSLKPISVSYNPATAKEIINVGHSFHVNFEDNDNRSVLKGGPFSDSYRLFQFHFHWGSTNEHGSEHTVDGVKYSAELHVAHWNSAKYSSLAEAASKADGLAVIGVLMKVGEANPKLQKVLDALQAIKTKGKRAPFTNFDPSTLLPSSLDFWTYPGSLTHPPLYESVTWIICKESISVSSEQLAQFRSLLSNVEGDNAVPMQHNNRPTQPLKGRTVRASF
Carbonic anhydrase 4, sequence (P22748 whole entry): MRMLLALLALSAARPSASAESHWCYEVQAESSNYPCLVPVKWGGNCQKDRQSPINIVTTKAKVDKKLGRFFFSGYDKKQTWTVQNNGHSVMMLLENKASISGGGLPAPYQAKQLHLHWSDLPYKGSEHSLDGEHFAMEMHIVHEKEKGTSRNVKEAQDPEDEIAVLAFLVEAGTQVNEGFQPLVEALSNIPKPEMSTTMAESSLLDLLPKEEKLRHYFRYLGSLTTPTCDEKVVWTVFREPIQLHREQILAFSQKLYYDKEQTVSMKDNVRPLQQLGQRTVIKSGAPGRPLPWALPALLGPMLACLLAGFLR

Regarding `O=C1CCCc2c1cnn2-c1ccc(S(=O)(=O)Nc2cccc([N+](=O)[O-])c2)cc1`, the pKi in experiment [1] and in experiment [2] was under 4.00 throughout.

`CC1(C)CC(=O)c2cnn(-c3ccc(S(=O)(=O)Nc4cccc(Cl)c4)cc3)c2C1`: the pKi in experiment [3], in experiment [1] and in experiment [2] was under 4.00 throughout.

Turning to `O=C1CC(c2ccccc2)Cc2c1cnn2-c1ccc(S(=O)(=O)Nc2ccccc2)cc1` (centres undefined), the pKi in experiment [2] was 4.02.

For `CC1(C)CC(=O)c2cnn(-c3ccc(S(=O)(=O)Nc4ccc([N+](=O)[O-])cc4)cc3)c2C1`, the negative-log Ki (pKi) in experiment [3] and in experiment [2] was under 4.00 in each case.

Consider `O=C1CC(c2ccccc2)Cc2c1cnn2-c1ccc(S(=O)(=O)Nc2cccc(Cl)c2)cc1` (centres undefined), for which the pKi in experiment [2] was 4.38.

As for `Cc1ccc(NS(=O)(=O)c2ccc(-n3ncc4c3CC(C)(C)CC4=O)cc2)cc1`, the pKi in experiment [3] and in experiment [2] was under 4.00 each time.

On to `CC1(C)CC(=O)c2cnn(-c3ccc(S(=O)(=O)Nc4ccccc4)cc3)c2C1`, for which the pKi in experiment [2] was under 4.00.

Turning to `O=C1CCCc2c1cnn2-c1ccc(S(=O)(=O)Nc2ccc([N+](=O)[O-])cc2)cc1`, the pKi in experiment [2] is 4.08.

In the case of `Cc1cccc(NS(=O)(=O)c2ccc(-n3ncc4c3CC(c3ccccc3)CC4=O)cc2)c1` (centres undefined), the figures for the pKi in experiment [2] and in experiment [4] were 4.21 and under 4.00, respectively.

As to `COc1cccc(NS(=O)(=O)c2ccc(-n3ncc4c3CC(C)(C)CC4=O)cc2)c1`, the pKi in experiment [2] is under 4.00.

For the compound `Cc1cccc(NS(=O)(=O)c2ccc(-n3ncc4c3CC(C)(C)CC4=O)cc2)c1`, the pKi in experiment [3], in experiment [1] and in experiment [2] was under 4.00 in each case.

With `CC1(C)CC(=O)c2cnn(-c3ccc(S(=O)(=O)Nc4cccc([N+](=O)[O-])c4)cc3)c2C1`, the negative logarithm of the Ki (pKi) in experiment [3] and in experiment [2] was under 4.00 each time.

Consider `O=C1CC(c2ccccc2)Cc2c1cnn2-c1ccc(S(=O)(=O)Nc2ccc([N+](=O)[O-])cc2)cc1` (centres undefined), for which, in experiment [2], the pKi was 5.39.

Consider `COc1cccc(NS(=O)(=O)c2ccc(-n3ncc4c3CC(c3ccccc3)CC4=O)cc2)c1` (centres undefined), for which the pKi in experiment [2] is 4.24.

As for `Cc1ccc(NS(=O)(=O)c2ccc(-n3ncc4c3CCCC4=O)cc2)cc1`, the pKi in experiment [2] is 4.41.

For `O=C1CCCc2c1cnn2-c1ccc(S(=O)(=O)Nc2ccccc2)cc1`, the pKi in experiment [2] is 4.01.

Turning to `Cc1ccc(NS(=O)(=O)c2ccc(-n3ncc4c3CC(c3ccccc3)CC4=O)cc2)cc1` (centres undefined), in experiment [2], the pKi is 4.33.

As for `O=C1CCCc2c1cnn2-c1ccc(S(=O)(=O)Nc2cccc(Cl)c2)cc1`, the pKi in experiment [2] was 4.43.

Regarding `Cc1cccc(NS(=O)(=O)c2ccc(-n3ncc4c3CCCC4=O)cc2)c1`, in experiment [2], the pKi is 4.48.

`COc1ccc(NS(=O)(=O)c2ccc(-n3ncc4c3CC(C)(C)CC4=O)cc2)cc1`: the pKi in experiment [2] was under 4.00.

In the case of `O=C1CC(c2ccccc2)Cc2c1cnn2-c1ccc(S(=O)(=O)Nc2ccc(Cl)cc2)cc1` (centres undefined), in experiment [2], the pKi is 4.33.

Turning to `COc1ccc(NS(=O)(=O)c2ccc(-n3ncc4c3CC(c3ccccc3)CC4=O)cc2)cc1` (centres undefined), the pKi in experiment [2] is 4.40.

With `O=C1CC(c2ccccc2)Cc2c1cnn2-c1ccc(S(=O)(=O)Nc2cccc([N+](=O)[O-])c2)cc1` (centres undefined), the pKi in experiment [2] is 4.07; in experiment [4], under 4.00.

Take `COc1cccc(NS(=O)(=O)c2ccc(-n3ncc4c3CCCC4=O)cc2)c1`: the negative logarithm of the Ki (pKi) in experiment [1], in experiment [2] and in experiment [4] was under 4.00 throughout.

Consider `COc1ccc(NS(=O)(=O)c2ccc(-n3ncc4c3CCCC4=O)cc2)cc1`, for which the pKi in experiment [2] is 4.25.

Take `CC1(C)CC(=O)c2cnn(-c3ccc(S(=O)(=O)Nc4ccc(Cl)cc4)cc3)c2C1`: in experiment [2], the pKi was under 4.00.

`O=C1CCCc2c1cnn2-c1ccc(S(=O)(=O)Nc2ccc(Cl)cc2)cc1`: the pKi in experiment [2] was under 4.00.
